In US7897182B2, “Composition comprising bamboo extract and the compounds isolated therefrom showing treating and preventing activity for inflammatory and blood circulation disease” (Unigen, Inc., priority 2003, dated 2011):
≈ marks a conversion by molar mass, not a printed value. Blank lines part the entries; values can stand above or below the compound they belong to.

Experiments:
[1] = tested on: HUVEC; test: Cell toxicity test, modified MTT method, HUVEC; assay type: cell-based, Human
Protocol: The cell toxicity of tricin compound of Example 5 was tested using modified MTT method (J. Immunological Methods, 119, pp 203-210, 1989).
200 μl of HUVEC (2×10^5 cells/ml) on flat bottom 96-well microtiter plates (Nunc, Sweden) were treated with tricin prepared in various concentrations and cultured at 37° C. for 24 hours.
50 μl of MTT solution (1 mg/ml) was added to each well and incubated at 37° C. for 4 hours. And then supernatant was removed.
To detect formazan crystal, 100 μl of DMSO was also added to each well and the colorigenic analysis was performed at 550 nm using microplate reader (Power wave-XS, Bio-Tek, USA).

[2] = tested on: RAW 264.7 cells; test: Cell viability at the tricin concentrations of the NO test (Table 9)
[3] = tested on: eNOS gene expression; test: eNOS mRNA expression in HUVEC (quantitative PCR); assay type: cell-based, Human; settings: for mRNA expression (fold), eNOS: HUVEC, control = 1
Protocol: (§1) RNA was isolated from HUVEC cell by Rneasy mini kit (cat#74103, Qiagen Co.) according to the manufacturer's instruction. And RT-PCT reaction was performed by using quantitative PCR method (SDS 7700, Applied biosystems Co., U.S.A.).
(§2) 5 μl of cDNA product obtained in the reverse transcription (RT) was aliquoted into each well of 96-well plate and then the mixture containing 5.6 mM MgCl2, 1×PCR buffer, 2 mM dNTP, 0.05% gelatin, 1 μM of a pair of each target gene primer or 0.16 μM of house keeping gene primer, 0.5 μM of target gene probe or 0.025 μM of housekeeping gene probe, 1.25 U of Taq polymerase was added thereto for polymerase chain reaction (PCR) (50° C. 2 min, 95° C. 10 min, 95° C. 15 sec, 60° C. 1 min, 40 cycles).
(§3) As the result, final cT value was read and calculated.

[4] = tested on: NO production; test: Inhibition of NO production in LPS-treated RAW 264.7 cells (Griess reagent); assay type: cell-based, Murine
Protocol: Murine macrophage cell line RAW 264.7 cell (ATCC, Rockville, Md., USA) were grown in DMEM (Gibco BRL Co., Ltd., USA), supplemented with 2.0 mM L-arginine, 100 μg/ml penicillin-streptomycin and 10% fetal bovine serum at 37° C. in 5% CO2 and 95% air condition in humidified incubator.
To test the inhibiting activity of bamboo extract and the compound isolated therefrom on nitric oxide (NO), which is one of inflammatory factors, the increase of NO was determined in the cells treated with extract or compound of the present invention.
200 μl of RAW 264.7 cells (1×10^6 cells/ml) were seeded onto each well of 96-well microtiter plate (Nunc, Sweden) and incubated for 3 hours in DMEM media containing 10% FBS. […]
And then 100 μl of cell supernatant of each well was transferred to new 96 well plate and 50 μl of Griess reagent (0.1% N-(1-naphtyl)ethylenediamine 2HCl, 1% sulfanilamide in 5% conc. H3PO4 in H2O) was added thereto followed by incubating for 10 mins at R.T. The absorbance was measured at 540 or 550 nm using ELISA reader (Power wave-XS, Bio-Tek, USA).

[5] = tested on: VEGF gene expression; test: VEGF mRNA expression in HUVEC (quantitative PCR); assay type: cell-based, Human; settings: for mRNA expression (fold), VEGF: HUVEC, control = 1
Protocol: as §1, §2, §3

[6] = tested on: u-PA gene expression; test: u-PA mRNA expression in HUVEC (quantitative PCR); assay type: cell-based, Human; settings: for mRNA expression (fold), u-PA: HUVEC, control = 1
Protocol: as §1, §2, §3

[7] = tested on: LDL receptor defected mouse; test: Blood lipid in LDL defected mouse on high fat diet; assay type: in vivo; settings: lovastatin 4 mg/kg oral
Protocol: (§4) Eight-weeks old male LDL receptor defected mouse accumulated to high fat feed were divided into two dose administration groups and one high dosing group of which group consist of six mice per group, Injectable distilled water was used as a negative control group, lovastain well known to be as an atheriosclerosis treating agent was administrated in an amount of 4 mg/kg per body weight as a positive control group, Bamboo was administrated to two treatment group in an amount of 50 and 100 mg/kg per body weight respectively, and one high dosing treatment group in an amount of 500 mg/kg per body weight for 20 weeks by way of compulsory oral administration after weighing the body weight twice a day (See Table 6).
And then blood plasma was isolated by centrifugation at the speed of 11,000 g for 10 minutes and left alone at −70° C. before use. The value of blood lipid was determined by three categories i.e., TC (Total cholesterol), HDL-C (High-density lipoprotein cholesterol) and TG (Triglycerides) at KRIBB in Korea.

[8] = tested on: LDL receptor defected mouse; test: Arteriosclerosis lesion area (Oil red O, aortic valve) in LDL defected mouse; assay type: in vivo; settings: positive control, lovastatin 4 mg/kg
Protocol: During the experiment, the environment of the cage was maintained to the temperature of 23±2° C. and the relative humidity of […] under the artificial lamp for 12 hours, and less than five mice were bred in each mouse cage providing with free access to water (disinfected distilled water) and normal fatty feed (Harlan 2018S, Indianapolis USA).
as §4, with “6). […]” for “6).”
The calculation of lesion area was performed by staining the lesion formed at the position between 3rd cervical […] and aortic valve and photocopying and then the lesion area was calculated by using computer-assisted morphometry (TDI microscope Image Analyzer, USA) comparing with control group.

[9] = tested on: iNOS gene expression; test: iNOS gene expression in LPS-treated RAW 264.7 cells (RT-PCR); assay type: cell-based, Murine; settings: for Inhibition of Gene expression (%) (iNOS): LPS, 24 hours
Protocol: To investigate the inhibiting effect on gene expression, the extract or compound of the present invention was treated to the cell and the RNA extracted therefrom was used in the RT-PCR to evaluate the quantitative gene expression. […] And RNA was extracted by conventional extraction method using Trizol reagent (Gibco BRL) to use in the following reverse transcription-polymerase chain reaction. RT-PCR was performed according to the RT reaction (25° C. 10 min, 48° C. 30 min, 95° C. 5 min, 4° C. 10 min; 1 cycle) and subsequent PCR (50° C. 2 min, 95° C. 10 min, 95° C. 15 sec, 60° C. 1 min, 40 cycles) method well known in the art. As an internal control, 18S ribosomal RNA was used.

[10] = Mus musculus, RAW264.7, read-out: NO inhibition rate (%)

SMILES: COc1cc(-c2cc(=O)c3c(O)cc(O)cc3o2)cc(OC)c1O [tricin]
cellular toxicity ([1]; HUVEC, 5 μg/ml, 24 hours, MTT): 51%
toxicity at the active concentrations, in words ([2]; 25, 12.5 and 6.5 μg/ml): no toxicity
Cell viability (%) ([2]; tricin 1.625 μg/ml): 126%
Cell viability (%) ([2]; tricin 3.25 μg/ml): 99%
Cell viability (%) ([2]; tricin 6.5 μg/ml): 96%
Cell viability (%) ([2]; tricin 12.5 μg/ml): 92%
Cell viability (%) ([2]; tricin 25 μg/ml): 80%
Cell viability (%) ([2]; tricin 50 μg/ml): 49%
expression of eNOS in HUVEC, in words [3]: increased
mRNA expression (fold), eNOS ([3]; tricin 0.5 μg/ml): 3.024 fold
mRNA expression (fold), eNOS ([3]; tricin 1.0 μg/ml): 4.711 fold
mRNA expression (fold), eNOS ([3]; tricin 5.0 μg/ml): 0.452 fold
NO inhibition, in words ([4]; 25, 12.5 and 6.5 μg/ml): strong NO inhibition rate
inhibition at 1.625 µg/mL [4, 10]: 25.9 ± 0.006%
inhibition at 3.25 µg/mL [4, 10]: 38.1 ± 0.005%
inhibition at 6.5 µg/mL [4, 10]: 52 ± 0.015%
inhibition at 25 µg/mL [4, 10]: 74.6 ± 0.009%
inhibition at 50 µg/mL [4, 10]: 49.7 ± 0.007%
inhibition at 12.5 µg/mL ([4]; Mus musculus, RAW264.7, tricin 12.5 μg/ml, read-out: NO inhibition rate (%)): 71.2 ± 0.003%
expression of VEGF in HUVEC, in words [5]: increased
mRNA expression (fold), VEGF ([5]; tricin 0.5 μg/ml): 2.046 fold
mRNA expression (fold), VEGF ([5]; tricin 1.0 μg/ml): 1.469 fold
mRNA expression (fold), VEGF ([5]; tricin 5.0 μg/ml): 1.545 fold
expression of u-PA gene in HUVEC, in words [6]: increased
mRNA expression (fold), u-PA ([6]; tricin 0.5 μg/ml): 1.619 fold
mRNA expression (fold), u-PA ([6]; tricin 1.0 μg/ml): 1.103 fold
mRNA expression (fold), u-PA ([6]; tricin 5.0 μg/ml): 2.962 fold

SMILES: O=C(O)/C=C/c1ccc(O)cc1 [p-coumaric acid]
cellular toxicity, in words [1]: no cellular toxicity

SMILES: CC[C@H](C)C(=O)O[C@H]1C[C@@H](C)C=C2C=C[C@H](C)[C@H](CC[C@@H]3C[C@@H](O)CC(=O)O3)[C@H]21 [Lovastatin, lovastatin]
HDL-C [7]: 25.00 ± 7.07
LDL-C [7]: 3485.00 ± 304.06
TC [7]: 3750.00 ± 42.43
TG [7]: 300.00 ± 14.14
inhibition of the formation of arteriosclerosis compared with control group [8]: about 47%

IC50 ([9]; Mus musculus, RAW264.7, calculated from the expression data, read-out: IC50 (μg/ml) on iNOS gene expression): 5.3 µg/mL (≈ 14.4 µM)
SMILES: COc1cc(/C=C/C(=O)CC(=O)/C=C/c2ccc(O)c(OC)c2)ccc1O [Curcumin, curcumin]
Comparative iNOS expression (% of control, DMSO) ([9]; 0.032 μg/ml): 80.5 % of control
Inhibition of Gene expression (%) (iNOS) ([9]; 0.032 μg/ml): 40%
Comparative iNOS expression (% of control, DMSO) ([9]; 0.16 μg/ml): 75.7 % of control
Inhibition of Gene expression (%) (iNOS) ([9]; 0.16 μg/ml): 40%
Comparative iNOS expression (% of control, DMSO) ([9]; 0.8 μg/ml): 64.4 % of control
Inhibition of Gene expression (%) (iNOS) ([9]; 0.8 μg/ml): 40%
Comparative iNOS expression (% of control, DMSO) ([9]; 4 μg/ml): 49.9 % of control
Inhibition of Gene expression (%) (iNOS) ([9]; 4 μg/ml): 90%
Inhibition of Gene expression (%) (iNOS) ([9]; 12.5 μg/ml): 90%
Comparative iNOS expression (% of control, DMSO) ([9]; 20 μg/ml): 1.3 % of control
concentration at which iNOS gene expression is inhibited by 90% ([9]; real time-gene expression analysis): 4 µg/mL
